# Values quoted from earlier work in PubChem BioAssay AID1259409 (Chemical Carcinogenesis Research Information System (CCRIS), 2018).
# Tested on: rodent chemically induced tumor inhibition, incidence and multiplicity
# Assay: CCRIS tumor inhibitor studies
# Conditions: Carcinogen: 7,12-DIMETHYLBENZ[A]ANTHRACENE, 57-97-6, Route [Inhibitor]: ORAL, Promoter: NONE USED
smiles,measurement,setting,value
O=[Se](O)O,"tumour outcome (control, treated, inhibition, significance)","Dose [Inhibitor]: 1 PPM IN DIET DAILY STARTING 1 WK PRIOR TO CARCINOGEN TREATMENT AND CONTINUING FOR DURATION OF STUDY (STUDY DURATION: 9, Species: MOUSE, Strain/Sex: BD2F1/FEMALE, Target Tissue: Type of Lesion: MAMMARY GLAND: TUMOR, Dose [Carcinogen]: 1 MG IN 0.2 ML COTTONSEED OIL 1/WK FOR 6 WK STARTING AT 8 WK OF AGE","18/32 (56%), 8/32 (25%), 55%, not calculated"
same,"tumour outcome (control, treated, inhibition, significance)","Dose [Inhibitor]: 1.5 PPM IN 5% CORN OIL DIET DAILY STARTING 29 D BEFORE CARCINOGEN TREATMENT AND CONTINUING FOR DURATION OF STUDY (STUDY, Species: RAT, Strain/Sex: SPRAGUE-DAWLEY/FEMALE, Target Tissue: Type of Lesion: MAMMARY GLAND: ADENOCARCINOMA, Dose [Carcinogen]: 5 MG IN CORN OIL ONCE AT 50 D OF AGE","12/30 (40%), 9/31 (29%), 28%, not significant"
same,"tumour outcome (control, treated, inhibition, significance)","Dose [Inhibitor]: 1.5 PPM IN 25% CORN OIL DIET DAILY STARTING 29 D BEFORE CARCINOGEN TREATMENT AND CONTINUING FOR DURATION OF STUDY (STUDY, Species: RAT, Strain/Sex: SPRAGUE-DAWLEY/FEMALE, Target Tissue: Type of Lesion: MAMMARY GLAND: ADENOCARCINOMA, Dose [Carcinogen]: 5 MG IN CORN OIL ONCE AT 50 D OF AGE","21/30 (70%), 16/29 (55%), 21%, not significant"
same,"tumour outcome (control, treated, inhibition, significance)","Dose [Inhibitor]: 2 PPM IN DIET DAILY STARTING 1 WK PRIOR TO CARCINOGEN TREATMENT AND CONTINUING FOR DURATION OF STUDY (STUDY DURATION: 9, Species: MOUSE, Strain/Sex: BALB/FEMALE, Target Tissue: Type of Lesion: MAMMARY GLAND: TUMOR, Dose [Carcinogen]: 1 MG IN 0.2 ML COTTONSEED OIL 1/WK FOR 6 WK STARTING AT 8 WK OF AGE","11/28 (39%), 2/28 (7%), 82%, not calculated"
same,"tumour outcome (control, treated, inhibition, significance)","Dose [Inhibitor]: 2 PPM IN DIET DAILY STARTING 1 WK PRIOR TO CARCINOGEN TREATMENT AND CONTINUING FOR DURATION OF STUDY (STUDY DURATION: 9, Species: MOUSE, Strain/Sex: BD2F1/FEMALE, Target Tissue: Type of Lesion: MAMMARY GLAND: TUMOR, Dose [Carcinogen]: 1 MG IN 0.2 ML COTTONSEED OIL 1/WK FOR 6 WK STARTING AT 8 WK OF AGE","18/32 (56%), 5/32 (16%), 71%, not calculated"
same,"tumour outcome (control, treated, inhibition, significance)","Dose [Inhibitor]: 2.5 MG/KG DIET DAILY STARTING 2 WK BEFORE CARCINOGEN TREATMENT AND CONTINUING FOR DURATION OF STUDY (STUDY DURATION: 26, Species: RAT, Strain/Sex: SPRAGUE-DAWLEY/FEMALE, Target Tissue: Type of Lesion: MAMMARY GLAND: ADENOCARCINOMA, Dose [Carcinogen]: 10 MG ONCE AT 50 D OF AGE","23/25 (92%), 18/25(72%), 22%, not significant"
same,"tumour outcome (control, treated, inhibition, significance)","Dose [Inhibitor]: 2.5 MG/KG DIET DAILY STARTING 2 WK BEFORE CARCINOGEN TREATMENT AND CONTINUING FOR DURATION OF STUDY (STUDY DURATION: 27, Species: RAT, Strain/Sex: SPRAGUE-DAWLEY/FEMALE, Target Tissue: Type of Lesion: MAMMARY GLAND: ADENOCARCINOMA, Dose [Carcinogen]: 10 MG ONCE AT 50 D OF AGE","28/30 (93%), 23/30(77%), 17%, not significant"
same,"tumour outcome (control, treated, inhibition, significance)","Dose [Inhibitor]: 2.5 PPM IN 5% CORN OIL DIET DAILY STARTING 29 D BEFORE CARCINOGEN TREATMENT AND CONTINUING FOR DURATION OF STUDY (STUDY, Species: RAT, Strain/Sex: SPRAGUE-DAWLEY/FEMALE, Target Tissue: Type of Lesion: MAMMARY GLAND: ADENOCARCINOMA, Dose [Carcinogen]: 5 MG IN CORN OIL ONCE AT 50 D OF AGE","12/30 (40%), 7/29 (24%), 40%, not significant"
same,"tumour outcome (control, treated, inhibition, significance)","Dose [Inhibitor]: 2.5 PPM IN 5% CORN OIL DIET DAILY STARTING 29 D BEFORE CARCINOGEN TREATMENT AND CONTINUING FOR DURATION OF STUDY (STUDY, Species: RAT, Strain/Sex: SPRAGUE-DAWLEY/FEMALE, Target Tissue: Type of Lesion: MAMMARY GLAND: ADENOCARCINOMA, Dose [Carcinogen]: 10 MG IN CORN OIL ONCE AT 50 D OF AGE","21/30 (70%), 13/29 (45%), 36%, p<0.05"
same,"tumour outcome (control, treated, inhibition, significance)","Dose [Inhibitor]: 2.5 PPM IN 5% CORN OIL DIET DAILY STARTING AT WEANING AND CONTINUING FOR DURATION OF STUDY (STUDY DURATION: 25 WK), Species: RAT, Strain/Sex: SPRAGUE-DAWLEY/FEMALE, Target Tissue: Type of Lesion: MAMMARY GLAND: ADENOCARCINOMA, Dose [Carcinogen]: 5 MG ONCE AT AGE 50 D","40%, 24%, 40%, not calculated"
same,"tumour outcome (control, treated, inhibition, significance)","Dose [Inhibitor]: 2.5 PPM IN 25% CORN OIL DIET DAILY STARTING 29 D BEFORE CARCINOGEN TREATMENT ANDCONTINUING FOR DURATION OF STUDY (STUDY, Species: RAT, Strain/Sex: SPRAGUE-DAWLEY/FEMALE, Target Tissue: Type of Lesion: MAMMARY GLAND: ADENOCARCINOMA, Dose [Carcinogen]: 5 MG IN CORN OIL ONCE AT 50 D OF AGE","21/30 (70%), 10/30 (33%), 53%, p<0.01"
same,"tumour outcome (control, treated, inhibition, significance)","Dose [Inhibitor]: 2.5 PPM IN 25% CORN OIL DIET DAILY STARTING AT WEANING AND CONTINUING FOR DURATION OF STUDY (STUDY DURATION: 25 WK), Species: RAT, Strain/Sex: SPRAGUE-DAWLEY/FEMALE, Target Tissue: Type of Lesion: MAMMARY GLAND: ADENOCARCINOMA, Dose [Carcinogen]: 5 MG ONCE AT AGE 50 D","70%, 33%, 53%, not calculated"
same,"tumour outcome (control, treated, inhibition, significance)","Dose [Inhibitor]: 2.5 PPM IN HIGH-SATURATED FAT DIET CONTAINING 1% CORN OIL AND 24% HYDROGENATED COCONUT OIL DAILY STARTING AT WEANING AND, Species: RAT, Strain/Sex: SPRAGUE-DAWLEY/FEMALE, Target Tissue: Type of Lesion: MAMMARY GLAND: TUMOR, Dose [Carcinogen]: 5 MG ONCE AT AGE 50 D","7/25 (28%), 5/25 (20%), 29%, not significant"
same,"tumour outcome (control, treated, inhibition, significance)","Dose [Inhibitor]: 2.5 PPM IN HIGH-SATURATED FAT DIET CONTAINING 1% CORN OIL AND 24% HYDROGENATED COCONUT OIL DAILY STARTING AT WEANING AND, Species: RAT, Strain/Sex: SPRAGUE-DAWLEY/FEMALE, Target Tissue: Type of Lesion: MAMMARY GLAND: TUMOR, Dose [Carcinogen]: 10 MG ONCE AT AGE 50 D","16/25 (64%), 8/24 (33%), 48%, p<0.05"
same,"tumour outcome (control, treated, inhibition, significance)","Dose [Inhibitor]: 4 MG/KG DIET DAILY FOR 28 WK STARTING 2 WK BEFORE START OF CARCINOGEN TREATMENT AND CONTINUING FOR DURATION OF STUDY (ST, Species: RAT, Strain/Sex: SPRAGUE-DAWLEY/FEMALE, Target Tissue: Type of Lesion: MAMMARY GLAND: TUMOR, Dose [Carcinogen]: 5 MG IN CORN OIL 1/WK FOR 3 WK","90%, 53%, 41%, p<0.01"
